The results in this text go back to US11225471B2, “Antidiabetic bicyclic compounds” (Merck Sharp & Dohme Corp., priority 2017, dated 2022).

T1 sequence (O14842 whole entry): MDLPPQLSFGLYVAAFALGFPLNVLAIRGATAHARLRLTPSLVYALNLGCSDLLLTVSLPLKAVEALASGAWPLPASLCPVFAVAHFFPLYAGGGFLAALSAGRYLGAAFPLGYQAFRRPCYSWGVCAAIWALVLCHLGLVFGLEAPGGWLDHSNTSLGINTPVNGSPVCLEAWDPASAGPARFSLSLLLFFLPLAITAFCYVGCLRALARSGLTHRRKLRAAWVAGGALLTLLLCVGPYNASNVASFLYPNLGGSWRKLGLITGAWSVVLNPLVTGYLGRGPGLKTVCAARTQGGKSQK

This experiment has as its target T1, human GPR40 (Homo sapiens, UniProt O14842).
T1 construct: expressed in transfected cells
The experiment in a line: Inositol Phosphate Turnover (IP1) Assay. Format: cell-based. Conditions: HEK cells stably expressing human GPR40; 60 min incubation. The procedure:
Human GPR40 stable cell-lines were generated in HEK cells. The expression plasmids were transfected using lipofectamine (Life Technologies) following manufacturer's instructions. Stable cell-lines were generated following drug selection and single cell cloning. The assay was performed in 384-well format. HEK cells stably expressing human GPR40 were plated at 7500 cells per well in growth medium (DMEM/10% fetal calf serum). Cell plates were then incubated 16 hours at 37 degrees in a 5% CO2 incubator. Measurement of Inositol Phosphate Turnover (IP1) was performed using the CisBio IP-One kit (Part number 62IPAPEB). After the 16 hour incubation, the growth media was removed by centrifugation using the BlueWasher (AusWasher GUI Ver. v1.0.1.8) Protocol #21-“Light Dry” and 10 ul of stimulation buffer (prepared as described in the kit) was added to each well. In a separate plate, compounds were diluted in DMSO (200-fold over the final concentration in the assay well) and 50 nl was acoustically transferred to the appropriate well in the assay cell plate. The plates were then incubated for 60 minutes at 37 degrees in a 5% CO2 incubator. 10 ul of detection buffer (also prepared as described in the IP-One kit) was added to each well and the plates were incubated at room temperature for 60 minutes in the dark. The plates were then read in a Perkin Elmer EnVision or equivalent reader able to measure FRET. Fluorescent ratio of emission at 665 and 620 nm was then converted to IP1 concentration by back calculating from an IP1 standard curve prepared at the time of the assay. Data were normalized to % activity using a reference compound and EC50s determined using a standard 4-parameter fit.
One may read the EC50 as the concentration at which the effect is half-maximal. High values mean a less potent agent, low ones a more potent agent. `COc1cc(-c2cnc([C@@H]3CCc4ccc([C@H](C5CC5)[C@H](C)C(=O)O)cc4O3)c(C)n2)c(Cl)cn1` (single isomer, unassigned) [Example 1] had an EC50 of 0.6 nM. Consider `COc1cc(-c2cnc(C3CCc4ccc([C@H](C5CC5)[C@H](C)C(=O)O)c(F)c4O3)c(C)n2)c(Cl)cn1` (single isomer, unassigned) [Example 22], for which the EC50 is 1.6 nM. Compound `CCOc1cc(-c2ncc([C@@H]3CCc4ccc([C@H](C5CC5)[C@H](C)C(=O)O)c(F)c4O3)nc2C)c(F)cn1` [Example 12, (2S,3R)-3-cyclopropyl-3-((S)-2-(5-(2-ethoxy-5-fluoropyridin-4-yl)-6-methylpyrazin-2-yl)-8-fluorochroman-7-yl)-2-methylpropanoic Acid] displayed an EC50 of 4.3 nM. In the case of `CCOc1cc(-c2ncc(C3CCc4ccc([C@H](C5CC5)[C@H](C)C(=O)O)cc4O3)nc2C)c(F)cn1` (single isomer, unassigned) [Example 3] it was 7.8 nM. In the case of `COc1cc(-c2cnc([C@H]3CCc4ccc([C@H](C5CC5)[C@H](C)C(=O)O)cc4O3)c(C)n2)c(Cl)cn1` (single isomer, unassigned) [Example 2] it was 1.3 nM. Consider `CCOc1cc(-c2cnc(C3CCc4ccc([C@H](C5CC5)[C@H](C)C(=O)O)c(F)c4O3)c(C)n2)c(F)cn1` (single isomer, unassigned) [Example 20], for which the EC50 amounted to 0.4 nM. `COc1cc(-c2ncc(C3CCc4ccc([C@H](C5CC5)[C@H](C)C(=O)O)c(F)c4O3)nc2C)c(F)cn1` (single isomer, unassigned) [Example 15] had an EC50 of 3 nM. In the case of `COc1cc(-c2cnc(C3CCc4ccc([C@H](C5CC5)[C@H](C)C(=O)O)c(F)c4O3)c(C)n2)c(F)cn1` (single isomer, unassigned) [Example 18] it was 4.2 nM; in that of `COc1cc(-c2cnc(C3CCc4ccc([C@H](C5CC5)[C@H](C)C(=O)O)c(F)c4O3)c(C)n2)c(F)cn1` (single isomer, unassigned) [Example 17], 0.3 nM; in that of `COc1cc(-c2ncc(C3CCc4ccc([C@H](C5CC5)[C@H](C)C(=O)O)c(F)c4O3)nc2C)c(F)cn1` (single isomer, unassigned) [Example 16], 6.6 nM.

On to `COc1cc(-c2ncc(C3CCc4ccc([C@H](C5CC5)[C@H](C)C(=O)O)cc4O3)nc2C)c(Cl)cn1` (single isomer, unassigned) [Example 14], for which the EC50 worked out at 13.8 nM.

`COc1cc(-c2cnc(C3CCc4ccc([C@H](C5CC5)[C@H](C)C(=O)O)c(F)c4O3)c(C)n2)c(Cl)cn1` (single isomer, unassigned) [Example 21] showed an EC50 of 0.3 nM. Under `COc1cc(-c2cnc([C@H]3C[C@H](OC)c4ccc([C@H](C5CC5)[C@H](C)C(=O)O)cc4O3)cn2)c(F)cn1` [Example 27, (2S,3R)-3-cyclopropyl-3-{(2R,4S)-2-[5-(5-fluoro-2-methoxypyridin-4-yl)pyrazin-2-yl]-4-methoxy-3,4-dihydro-2H-chromen-7-yl}-2-methylpropanoic Acid] stands 1.7 nM; under `Cc1nc(-c2cc(OCC(F)F)ncc2F)cnc1C1CCc2ccc([C@H](C3CC3)[C@H](C)C(=O)O)cc2O1` (single isomer, unassigned) [Example 7], 0.9 nM. Turning to `CCc1nc([C@@H]2CCc3ccc([C@H](C4CC4)[C@H](C)C(=O)O)cc3O2)cnc1-c1cc(OC)ncc1F` [Example 24, (2S,3R)-3-cyclopropyl-3-((S)-2-(6-ethyl-5-(5-fluoro-2-methoxypyridin-4-yl)pyrazin-2-yl)chroman-7-yl)-2-methylpropanoic Acid], a half-maximal response (EC50) required 2.3 nM. With `CCOc1cc(-c2ncc(C3CCc4ccc([C@H](C5CC5)[C@H](C)C(=O)O)cc4O3)nc2C)c(F)cn1` (single isomer, unassigned) [Example 4], a half-maximal effect (EC50) was put at 6.9 nM. In the case of `CCOc1cc(-c2cnc(C3CCc4ccc([C@H](C5CC5)[C@H](C)C(=O)O)cc4O3)c(C)n2)c(F)cn1` (single isomer, unassigned) [Example 9] it was 0.7 nM. Consider `COc1cc(-c2cnc(C3CCc4ccc([C@H](C5CC5)[C@H](C)C(=O)O)cc4O3)c(C)n2)c(C)cn1` (single isomer, unassigned) [Example 25], for which a half-maximal effect (EC50) was put at 8.1 nM. Under `CCOc1cc(-c2cnc(C3CCc4ccc([C@H](C5CC5)[C@H](C)C(=O)O)c(F)c4O3)c(C)n2)c(F)cn1` (single isomer, unassigned) [Example 19] stands 1.1 nM. In the case of `COc1cc(-c2ncc(C3CCc4ccc([C@H](C5CC5)[C@H](C)C(=O)O)cc4O3)nc2C)c(Cl)cn1` (single isomer, unassigned) [Example 13] it was 4.1 nM; in that of `COc1cc(-c2ncc(C3CCc4ccc([C@H](C5CC5)[C@H](C)C(=O)O)cc4O3)nc2C)c(Cl)cn1` (single isomer, unassigned) [Example 6], 3.3 nM. In the case of `COc1cc(-c2cnc(C3CCc4ccc([C@H](C5CC5)[C@H](C)C(=O)O)cc4O3)c(C)n2)c(C2CC2)cn1` (single isomer, unassigned) [Example 26] it was 5.4 nM. In turn, `CCOc1cc(-c2ncc([C@H]3CCc4ccc([C@H](C5CC5)[C@H](C)C(=O)O)c(F)c4O3)nc2C)c(F)cn1` [Example 11, (2S,3R)-3-cyclopropyl-3-((R)-2-(5-(2-ethoxy-5-fluoropyridin-4-yl)-6-methylpyrazin-2-yl)-8-fluorochroman-7-yl)-2-methylpropanoic acid] gave an EC50 of 3.5 nM.

The compound `COc1cc(-c2ncc(C3CCc4ccc([C@H](C5CC5)[C@H](C)C(=O)O)cc4O3)nc2C)c(Cl)cn1` (single isomer, unassigned) [Example 5] displayed an EC50 of 11.2 nM.

For the compound `CCc1nc([C@H]2CCc3ccc([C@H](C4CC4)[C@H](C)C(=O)O)cc3O2)cnc1-c1cc(OC)ncc1F` [Example 23, (2S,3R)-3-cyclopropyl-3-((R)-2-(6-ethyl-5-(5-fluoro-2-methoxypyridin-4-yl)pyrazin-2-yl)chroman-7-yl)-2-methylpropanoic acid], a half-maximal response (EC50) required 6.5 nM. In the case of `Cc1nc(-c2cc(OCC(F)F)ncc2F)cnc1C1CCc2ccc([C@H](C3CC3)[C@H](C)C(=O)O)cc2O1` (single isomer, unassigned) [Example 8] it was 1 nM.
